Values belong to the compound of their own block, whether it stands above or below them. Residues, ends and D or L forms follow the SMILES beside them. No end group written: not given here. *: point of attachment. X1 = O=C(CCCC[C@@H]1SC[C@@H]2NC(=O)N[C@@H]21)NCCCC[C@H](NC(=O)CCOCCOCCOCCOCCOCCOCCOCCOCCOCCOCCOCCOCCSc1c(F)c(F)c(Sc2c(F)c(F)c(*)c(F)c2F)c(F)c1F)C(=O)O
Key:
proteinase K = molecular target: T1, proteinase K (Parengyodontium album, UniProt P06873); experiment: Protease digestion with proteinase K (LC-MS fraction remaining); format: in vitro ADME; conditions: 100 μM peptide; for protease stability in presence of CA (noncovalent): with 10×CA (1 mM CA)
T1 construct: purchased Amresco
T1 sequence (P06873 106-384): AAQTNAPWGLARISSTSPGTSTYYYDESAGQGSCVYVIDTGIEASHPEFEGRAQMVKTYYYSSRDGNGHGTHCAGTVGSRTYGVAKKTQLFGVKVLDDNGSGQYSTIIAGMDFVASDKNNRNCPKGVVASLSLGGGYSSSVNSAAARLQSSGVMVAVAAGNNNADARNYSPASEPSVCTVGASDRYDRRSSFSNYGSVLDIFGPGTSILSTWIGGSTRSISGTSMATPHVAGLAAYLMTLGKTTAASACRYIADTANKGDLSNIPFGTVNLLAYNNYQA
Protocol: Reactions were performed using 100 μM peptide with […] of proteinase K for general cleavage with the addition of 1 mM CA for C11A and C11S digestions. Reactions were quenched with 49.75% water, 49.75% ACN and 0.5% TFA at selection time point and analyzed by LCMS. TIC-based integrated peak areas were used to determine the amount of material in a given time point normalized to the starting amount. These normalized values there then concerted to fraction remaining and plotted as shown.

[1] = Second order rate constant of the reaction between miniprotein (MP) and capture agent (CA), LC-MS TIC peak integration; format: biochemical; conditions: for Second order rate constant: 0.1 mM MP, 0.5 mM CA; for reactivity with the CA (in words) / fold increase of second order rate constant relative to MP01: standard reaction conditions; for Rate: Table 4, reaction rates of self-labeling miniprotein sequences
[2] = Labeling conversion of MP with the modified capture agent (LC-MS TIC); format: biochemical; conditions: 0.5 mM mCA, 0.1 mM MP, 5 mM TCEP, 1× selection buffer, pH 7.4
Protocol: A solution consisting of 5 mM carboxy-(PEG)12-thiol, 500 mM pentafluorophenyl sulfide, 20 mM triphenylphosphine and 230 mM DIEA in acetonitrile was vortexed and left at room temperature for 4 hours. The reaction was then diluted with 10.6× volume of 95% A: 5% B, solid phase extracted and lyophilized. The resulting material was analyzed by LCMS (method 2). This product will later be referred to as mCA (modified CA).
All 10 putative self-labeling MPs were chemically synthesized (MP01 and MP02 were additionally made with the full C-terminal constant region). To determine the importance of the C-terminal tag, a kinetic analysis on MP01 was conducted comparing the sequence with and without the tag. […] The remainder of the MPs all reacted with varying second order rate constants and to differing product distributions from multiple cysteine labeling sites (Table 3). […] Of the sequences containing multiple cysteines, all reacted to differing extents. […] On the other hand, MP08 (SEQ ID NO: 53) reacted sluggishly (0.04 μM^−1 s^−1) to produce singly and doubly labeled species. The sole sequence containing three cysteines, MP05 (SEQ ID NO: 44), yielded a mixture of labeled species within an 8-hour reaction—primarily existing with either 2 or 3 labels with a rapid initial labeling process (0.93±0.11 μM^−1 s^−1). […]

[3] = Labeling conversion of MP with the selection capture agent (LC-MS TIC); format: biochemical; conditions: 0.5 mM CA, 0.1 mM MP, 5 mM TCEP, 1× selection buffer, pH 7.4
Protocol: All 10 putative self-labeling MPs were chemically synthesized (MP01 and MP02 were additionally made with the full C-terminal constant region). To determine the importance of the C-terminal tag, a kinetic analysis on MP01 was conducted comparing the sequence with and without the tag. […] The remainder of the MPs all reacted with varying second order rate constants and to differing product distributions from multiple cysteine labeling sites (Table 3). […] Of the sequences containing multiple cysteines, all reacted to differing extents. […] On the other hand, MP08 (SEQ ID NO: 53) reacted sluggishly (0.04 μM^−1 s^−1) to produce singly and doubly labeled species. The sole sequence containing three cysteines, MP05 (SEQ ID NO: 44), yielded a mixture of labeled species within an 8-hour reaction—primarily existing with either 2 or 3 labels with a rapid initial labeling process (0.93±0.11 μM^−1 s^−1). Finally, MP01, 07 and 10 (SEQ ID NOs: 13, 52, and 59, respectively) were probed via proteolytic digest-LC-MS/MS analysis, this confirmed that the cysteines were labeled and not an alternative amino acid. […] Conditions used were 0.5 mM CA, 0.1 mM MP, 5 mM TCEP, 1× selection buffer, pH 7.4.

[4] = Thermal melting followed by circular dichroism at 222 nm; format: physicochemical; conditions: CD at 222 nm
Protocol: All experiments were performed at room temperature (˜23.5° C.) using a Jasco J-1500 spectrometer at MIT's Biophysical Instrumentation Facility (BIF). General conditions used were 10 mM sodium phosphate buffer at pH 7.45 with 5 mM TCEP (if a cysteine was present) with 50 μM peptide. CD measurements with C11S and C11A versions of Gen4 (SEQ ID NOs: 138 and 137, respectively) used the same conditions, without TCEP but with varying amount of CA (50 μM up to 500 μM depending on the desired mole ratio). Temperature melt data was obtained using a 0.5° C./minute ramp with data collected at 222 nm. […] For CD of Gen 1 (MP01; SEQ ID NO: 13), Gen1 H19L (MP01-H19L; SEQ ID NO: 62), Gen1 3 ala (MP01-T8/D10/S14A; SEQ ID NO: 69), Gen2 (MP01-Gen2; SEQ ID NO: 71) and Gen3_1 (MP01-Gen3_1; Gen 2-A17E; SEQ ID NO: 116) in their labeled and nonlabeled states, data was obtained in 12.5 mM HEPES, 50 mM NaCl, 2.5 mM MgCl2 and 2.5 mM CaCl2 at pH 7.45 with 5 mM TCEP at 50 µM peptide with or without ˜55 μM CA that had reacted for ˜2 days at room temperature. The CA labeled versions were not purified post reaction and were analyze in their reaction mixture.
Lacking an apparent cysteine pKa modulation, the basis for Gen4's high reactivity again came into question. Both C11A (SEQ ID NO: 134) and C11S (SEQ ID NO: 135) variants were synthesized and assayed them for CA-mediated structural alteration via CD. […]

[5] = 5 mM TCEP, 1× selection buffer pH 7.4, RT, a: average of three MP concentrations, c: labeled 1-3 times, d: labeled 1-2 times
[6] = 5 mM TCEP, 1× selection buffer pH 7.4, RT

Compound: CSCC[C@H](NC(=O)[C@H](CCCCN)NC(=O)[C@H](Cc1ccc(O)cc1)NC(=O)[C@H](CCCCN)NC(=O)[C@H](CCC(N)=O)NC(=O)[C@H](CC(N)=O)NC(=O)[C@@H](N)CCSC)C(=O)N[C@@H](C)C(=O)N[C@@H](CCCCN)C(=O)N[C@@H](C)C(=O)N[C@@H](CSc1c(F)c(F)c(Sc2c(F)c(F)c(SCCOCCOCCOCCOCCOCCOCCOCCOCCOCCOCCOCCOCCC(=O)N[C@@H](CCCCNC(=O)CCCC[C@@H]3SC[C@@H]4NC(=O)N[C@@H]43)C(=O)O)c(F)c2F)c(F)c1F)C(=O)N[C@@H](Cc1ccccc1)C(=O)N[C@@H](Cc1ccccc1)C(=O)N[C@@H](C)C(=O)N[C@@H](Cc1ccccc1)C(=O)N[C@@H](CC(C)C)C(=O)N[C@@H](CCC(=O)O)C(=O)N[C@@H](Cc1c[nH]cn1)C(=O)N[C@@H](CC(C)C)C(=O)N[C@@H](CCCCN)C(=O)N[C@@H](CCCCN)C(=O)N[C@@H](CCCNC(=N)N)C(=O)N[C@@H](CCCCN)C(=O)N[C@@H](CC(C)C)C(=O)N[C@@H](Cc1ccc(O)cc1)C(=O)N1CCC[C@H]1C(=O)N[C@@H](CCSC)C(=O)N[C@@H](CO)C(=O)NCC(N)=O [Gen4-CA] (H-MNQKYKMAKAC(X1)FFAFLEHLKKRKLYPMSG-NH2)
protease stability (proteinase K): significantly increased protease resistance

Compound: KMTKDCFFSFL-NH2 [MP01-T, KMTKDCFFSFL]
Second order rate constant [1, 5]: 0.06 M⁻¹ s⁻¹
reactivity with the CA (in words) [1]: severely diminished activity

Compound: MGHLHICMVWRVNTSGHILSVGHKSYSSHKTG-NH2 [MP13]
Rate [1]: 2.41 M⁻¹ s⁻¹

Compound: MGIVHNATRFPKRCFYSFIATRQSKNSIRVSG-NH2 [MP06]
Second order rate constant [1, 5]: 0.11 ± 0.01 M⁻¹ s⁻¹

Compound: MHAKYKMAKACFFAFLAHLKKRKLYPMSG-NH2 [Gen 2-Q3A]
reactivity with the CA (in words) [1]: no alteration

Compound: MHHYCSKMKRRILMHYLFANTMAHRDLGTNG-NH2 [MP15]
Rate [1]: 10.09 M⁻¹ s⁻¹

Compound: MHLRMIRYLNRRRHLCHVVEIRHGLFASREIG-NH2 [MP16]
Rate [1]: 0.19 M⁻¹ s⁻¹

Compound: MHMHKTTSYRIRVLVGVDVYRMSHTCLTSSSG-NH2 [MP19]
Rate [1]: 0.21 M⁻¹ s⁻¹

Compound: MHNAYLRKSMRQLCYFRRTLHNIHVMSHRG-NH2 [MP10]
conversion with modified CA (mCA) [2]: 96%
conversion with selection CA [3]: 91%
rate enhancement over a non-selected Cys peptide [1]: ~529 ×
Second order rate constant [1, 5]: 1.66 ± 0.48^a M^−1 s^−1

Compound: MHQKYKMAAACFFAFLAHLKKRKLYPMSG-NH2 [Gen 2-K9A]
reactivity with the CA (in words) [1]: no alteration

Compound: MHQKYKMAKACFFAFLAHHKKRKLYPMSG-NH2 [triple alanine variant]
Second order rate constant [1, 6]: 1.82 M⁻¹ s⁻¹
fold increase of second order rate constant relative to MP01 [1]: 6.3 fold

Compound: MHQKYKMAKACFFAFLAHLAKRKLYPMSG-NH2 [Gen 2-K20A]
reactivity with the CA (in words) [1]: no alteration

Compound: MHQKYKMAKACFFAFLAHLKKRKLYPMSG-NH2 [MP01-Gen2]
fold increase of second order rate constant relative to MP01 [1]: 32.2 fold

Compound: MHQKYKMAKACFFAFLEHLKKRKLYPMSG-NH2 [Gen3_1]
reactivity with the CA (in words) [1]: increased the rate of reaction

Compound: MHQKYKMTKDCFFSFLAHLKKRKLYPMSG-NH2 [MP01-H19L]
fold increase of second order rate constant relative to MP01 [1]: 7.5 fold

Compound: MHQKYKMTKDCFFSFLAHVKKRKLYPMSG-NH2 [MP01-H19V]
reactivity with the CA (in words) [1]: progressively improved rate constants

Compound: MHQKYKMTKDSFFSFLAHHKKRKLYPMSG-NH2 [SEQ ID NO: 91]
reactivity with the CA (in words) [1]: all reactivity was lost

Compound: MHTSLRSRAKSHSRSFGKCASIYTRYLKMG-NH2 [MP20]
Rate [1]: 1.22 M⁻¹ s⁻¹

Compound: MKTFSSDQRFSKKCYRIYFHKLRQRNHNTSVG-NH2 [MP07]
Second order rate constant [1, 5]: 0.91 ± 0.14^a M^−1 s^−1

Compound: MLFMRLTKKTMATKFCPFRRKRKHRERRALYG-NH2 [MP27]
Rate [1]: 0.61 M⁻¹ s⁻¹

Compound: MNGHYPCYLITSVLVGATTSGVPVVVHLRVG-NH2 [MP17]
Rate [1]: 0.11 M⁻¹ s⁻¹

Compound: MNQKYKMAKAAFFAFLEHLKKRKLYPMSG-NH2 [Gen4(C11A)]
protease stability in presence of CA (noncovalent) (proteinase K): improved protease stability

Compound: MNQKYKMAKACFFAFLAHLKKRKLYPMSG-NH2 [Gen3_2]
reactivity with the CA (in words) [1]: increased the rate of reaction

thermal melting behaviour (in words) ([4]; 4-95° C.): broad, gradually increasing trend
Compound: MNQKYKMAKACFFAFLEHLKKRKLYPMSG-NH2 [MP01-Gen4]
reactivity relative to a random cysteine containing peptide [1]: ~4×10^3 times
second order rate constant relative to the initial MP01 scaffold [1]: ~100 times
reaction rate with ammonium sulfate ([1]; 2 μM ammonium sulfate (so in the source)): 3.9 M⁻¹ s⁻¹
reaction rate with sodium chloride ([1]; 2 μM sodium chloride (so in the source)): 6.1 M⁻¹ s⁻¹
reactivity under denaturant guanidinium chloride ([1]; 2-3 M guanidinium chloride, pH 7.45): near complete ablation of reactivity
rate constant with TMAO ([1]; trimethylamine N-oxide (TMAO) at 0.5 μM (so in the source)): ~9.7 M⁻¹ s⁻¹
rate constant with TMAO ([1]; trimethylamine N-oxide (TMAO) at 1 μM (so in the source)): ~7.5 M⁻¹ s⁻¹

Compound: MNQKYKMAKASFFAFLEHLKKRKLYPMSG-NH2 [Gen4(C11S)]
thermal melting behaviour (in words) with CA ([4]; 50 μM peptide with 10×CA (500 μM)): gradually increasing CD signal albeit with a shift to higher temperatures
protease stability in presence of CA (noncovalent) (proteinase K): improved protease stability

Compound: MNRIFHKRSTYQMVFGRCSDFTSTYHVLISYG-NH2 [MP25]
Rate [1]: 0.25 M⁻¹ s⁻¹

Compound: MPNYGPLSPSQPSHGYTFWMVPIWDNSHNAAG-NH2 [MP02]
Second order rate constant ([1]; footnote b: construct with the full length C-terminal region (-SGSLGHHHHHHRL)): No Reaction^b
reactivity with the CA (in words) [1]: did not react

Compound: MQHEDLCTWYGFCPSGNFTPRNLRGDSDG [MP08]
Second order rate constant [1, 6]: 0.04 M⁻¹ s⁻¹
Second order rate constant [1, 5]: 0.04^d M^−1 s^−1

Compound: MQNSKHRPRRCLRLLPLLRGHLHRMFRERG-NH2 [MP21]
Rate [1]: 2.00 M⁻¹ s⁻¹

Compound: MRHYHLTCFQGFRIFRRTVDSLEMEISLG-NH2 [MP18]
Rate [1]: 0.17 M⁻¹ s⁻¹

Compound: MRPCARRDRTLWCPFDSPAWFLLSGFSCG [MP05]
Second order rate constant [1, 6]: 0.93 ± 0.11 M⁻¹ s⁻¹
Second order rate constant [1, 5]: 0.93 ± 0.11^c M^−1 s^−1

Compound: MRRTPSTRARGRVFLLPTLRFFITLCNLNG-NH2 [MP24]
Rate [1]: 0.02 M⁻¹ s⁻¹

Compound: MRSTHQRVRRPRNLCSFKHKWLIKFLKTLTG-NH2 [MP22]
Rate [1]: 4.94 M⁻¹ s⁻¹

Compound: MRTPIKFAPRLSQPFCPFRKQHQLHLHPLIEG-NH2 [MP04]
Second order rate constant [1, 5]: 0.24 ± 0.01 M⁻¹ s⁻¹

Compound: MRYIYVLRLKSWCGGASARSSPRSCATKLLG [MP09]
Second order rate constant [1, 5]: 0.52 ± 0.01^d M^−1 s^−1
initial rate (biphasic kinetics) ([1]; standard conditions, en route to being labeled twice): 0.52 M⁻¹ s⁻¹

Compound: MSSGTHYGILNMVIRCHLVKNQTSQMVVLTTG-NH2 [MP14]
Rate [1]: 0.12 M⁻¹ s⁻¹

Compound: MTATSSSTSRGCRPSTAQVVQRLRGLLLVVG-NH2 [MP26]
Rate [1]: 0.07 M⁻¹ s⁻¹

Compound: MTSVTASLLMHFCPIRAHITNKPSFNPSG-NH2 [MP03]
Second order rate constant [1, 5]: 0.04 M⁻¹ s⁻¹

Compound: MVKLSGKERTTRNCFFSFLASRRTKKFNNLSG-NH2 [MP12]
Rate [1]: 0.23 M⁻¹ s⁻¹

Reference: patent US11014961B2, “Self-labeling miniproteins and conjugates comprising them” (priority 2017, dated 2021)
